ChEMBL document CHEMBL3112543, “Discovery of MK-7655, a β-lactamase inhibitor for combination with Primaxin®” (Bioorg Med Chem Lett, 2014)

Key:
Acinetobacter baumannii = assay: Inhibition of beta-lactamase in Acinetobacter baumannii CL 6188 assessed as drug concentration required to reduce imipenem MIC to 4 ug/ml
Pseudomonas aeruginosa = assay: Inhibition of beta-lactamase in Pseudomonas aeruginosa CL 5701 assessed as drug concentration required to reduce imipenem MIC to 4 ug/ml
Klebsiella pneumoniae = assay: Inhibition of beta-lactamase in Klebsiella pneumoniae CL 6569 assessed as drug concentration required to reduce imipenem MIC to 4 ug/ml
Beta-lactamase = Beta-lactamase (Acinetobacter baumannii, UniProt Q8RLA6); assay: Inhibition of beta-lactamase Oxa40 in Acinetobacter baumannii assessed as inhibition of hydrolysis of nitrocefin
[1] = Inhibition of beta-lactamase AmpC in Acinetobacter baumannii assessed as inhibition of hydrolysis of nitrocefin
[2] = Inhibition of beta-lactamase AmpC in Pseudomonas aeruginosa assessed as inhibition of hydrolysis of nitrocefin
[3] = Inhibition of beta-lactamase KPC-2 in Klebsiella pneumoniae assessed as inhibition of hydrolysis of nitrocefin

Chain of Beta-lactamase (Q8RLA6 whole entry): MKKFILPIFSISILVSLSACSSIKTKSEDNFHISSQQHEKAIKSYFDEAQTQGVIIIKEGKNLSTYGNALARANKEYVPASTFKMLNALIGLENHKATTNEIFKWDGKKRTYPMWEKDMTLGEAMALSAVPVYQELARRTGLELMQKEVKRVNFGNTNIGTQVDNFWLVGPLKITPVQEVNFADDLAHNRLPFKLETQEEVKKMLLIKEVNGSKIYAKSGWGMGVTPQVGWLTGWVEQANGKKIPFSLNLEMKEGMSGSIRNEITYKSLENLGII

For NCc1ccc(NC(=O)[C@@H]2CC[C@@H]3CN2C(=O)N3OS(=O)(=O)O)nc1, the INH (Acinetobacter baumannii) was > 100 µM, the INH (Pseudomonas aeruginosa) was 6.25 µM and the INH (Klebsiella pneumoniae) was 12.5 µM. For the same compound, the IC50 (Beta-lactamase) was 4.4 µM, the IC50 [1] was 0.026 µM and the IC50 [2] was 0.003 µM. The IC50 [3] was 0.042 µM.
For CN1CCC(NC(=O)[C@@H]2CC[C@@H]3CN2C(=O)N3OS(=O)(=O)O)CC1, the INH (Acinetobacter baumannii) was > 100 µM, the INH (Pseudomonas aeruginosa) was 12.5 µM and the INH (Klebsiella pneumoniae) was 12.5 µM. The IC50 (Beta-lactamase) was > 50 µM, the IC50 [1] was 2.7 µM and the IC50 [2] was 0.5 µM. The IC50 [3] was 0.24 µM.
In the case of O=C(NCC1CCNCC1)[C@@H]1CC[C@@H]2CN1C(=O)N2OS(=O)(=O)O, the INH (Acinetobacter baumannii) is reported as > 100 µM, the INH (Pseudomonas aeruginosa) is reported as 6.25 µM and the INH (Klebsiella pneumoniae) is reported as 6.25 µM. For the same compound, the IC50 (Beta-lactamase) was > 50 µM, the IC50 [1] was 2.2 µM and the IC50 [2] was 0.03 µM. It also gave an IC50 [3] of 0.077 µM.
In the case of O=C(OC1CCNCC1)[C@@H]1CC[C@@H]2CN1C(=O)N2OS(=O)(=O)O, the INH (Acinetobacter baumannii) is reported as > 100 µM, the INH (Pseudomonas aeruginosa) is reported as 6.25 µM and the INH (Klebsiella pneumoniae) is reported as 6.25 µM. It also gave an IC50 (Beta-lactamase) of 13 µM, an IC50 [1] of 1.1 µM and an IC50 [2] of 0.17 µM. For the same compound, the IC50 [3] was 0.009 µM.
With O=C(Nc1cccnc1)[C@@H]1CC[C@@H]2CN1C(=O)N2OS(=O)(=O)O the INH (Acinetobacter baumannii) was > 100 µM, the INH (Pseudomonas aeruginosa) was 100 µM and the INH (Klebsiella pneumoniae) was 50 µM. It also gave an IC50 (Beta-lactamase) of 20 µM, an IC50 [1] of 1.2 µM and an IC50 [2] of 0.037 µM. The IC50 [3] was 0.042 µM.
In the case of O=C(N[C@H]1CCCNCC1)[C@@H]1CC[C@@H]2CN1C(=O)N2OS(=O)(=O)O, the INH (Acinetobacter baumannii) is reported as > 100 µM, the INH (Pseudomonas aeruginosa) is reported as 6.25 µM and the INH (Klebsiella pneumoniae) is reported as 12.5 µM. The IC50 (Beta-lactamase) was > 50 µM, the IC50 [1] was 1.7 µM and the IC50 [2] was 0.069 µM. It also gave an IC50 [3] of 0.245 µM.
For N[C@@H](Cc1ccc(NC(=O)[C@@H]2CC[C@@H]3CN2C(=O)N3OS(=O)(=O)O)cc1)C(=O)O, the INH (Acinetobacter baumannii) was > 100 µM, the INH (Pseudomonas aeruginosa) was 25 µM and the INH (Klebsiella pneumoniae) was 50 µM. It also gave an IC50 (Beta-lactamase) of 28 µM, an IC50 [1] of 1.1 µM and an IC50 [2] of 0.011 µM. The IC50 [3] was 0.003 µM.
For CN(C(=O)[C@@H]1CC[C@@H]2CN1C(=O)N2OS(=O)(=O)O)C1CCNCC1, the INH (Acinetobacter baumannii) was > 100 µM, the INH (Pseudomonas aeruginosa) was 25 µM and the INH (Klebsiella pneumoniae) was 50 µM. The IC50 (Beta-lactamase) was > 50 µM, the IC50 [1] was 2.1 µM and the IC50 [2] was 0.29 µM. For the same compound, the IC50 [3] was 2.5 µM.
In the case of O=C(N[C@H]1CCNC1)[C@@H]1CC[C@@H]2CN1C(=O)N2OS(=O)(=O)O, the INH (Acinetobacter baumannii) is reported as > 100 µM, the INH (Pseudomonas aeruginosa) is reported as 3.12 µM and the INH (Klebsiella pneumoniae) is reported as 6.25 µM. The IC50 (Beta-lactamase) was > 50 µM, the IC50 [1] was 5.6 µM and the IC50 [2] was 0.14 µM. The IC50 [3] was 0.41 µM.
With O=C(NC1CCNCC1)[C@@H]1CC[C@@H]2CN1C(=O)N2OS(=O)(=O)O [RELEBACTAM] the INH (Acinetobacter baumannii) was > 100 µM, the INH (Pseudomonas aeruginosa) was 4.7 µM and the INH (Klebsiella pneumoniae) was 12.5 µM. For the same compound, the IC50 (Beta-lactamase) was > 50 µM, the IC50 [1] was 4.1 µM and the IC50 [2] was 0.465 µM.
For C[n+]1ccc(NC(=O)[C@@H]2CC[C@@H]3CN2C(=O)N3OS(=O)(=O)[O-])cc1, the INH (Acinetobacter baumannii) was > 100 µM, the INH (Pseudomonas aeruginosa) was 25 µM and the INH (Klebsiella pneumoniae) was 25 µM. For the same compound, the IC50 (Beta-lactamase) was > 50 µM, the IC50 [1] was 12 µM and the IC50 [2] was 0.21 µM. It also gave an IC50 [3] of 0.26 µM.
In the case of Nc1cccc(NC(=O)[C@@H]2CC[C@@H]3CN2C(=O)N3OS(=O)(=O)O)n1, the INH (Acinetobacter baumannii) is reported as > 100 µM, the INH (Pseudomonas aeruginosa) is reported as 50 µM and the INH (Klebsiella pneumoniae) is reported as 25 µM. The IC50 (Beta-lactamase) was 0.36 µM, the IC50 [1] was 0.1 µM and the IC50 [2] was 0.008 µM. For the same compound, the IC50 [3] was 0.011 µM.
With O=C(NC1CCS(=O)(=O)CC1)[C@@H]1CC[C@@H]2CN1C(=O)N2OS(=O)(=O)O the INH (Acinetobacter baumannii) was > 100 µM, the INH (Pseudomonas aeruginosa) was 50 µM and the INH (Klebsiella pneumoniae) was 50 µM. The IC50 (Beta-lactamase) was > 50 µM, the IC50 [1] was 0.47 µM and the IC50 [2] was 0.0095 µM. For the same compound, the IC50 [3] was 0.15 µM.
For O=C(Nc1ccccn1)[C@@H]1CC[C@@H]2CN1C(=O)N2OS(=O)(=O)O, the INH (Acinetobacter baumannii) was > 100 µM, the INH (Pseudomonas aeruginosa) was 12.5 µM and the INH (Klebsiella pneumoniae) was 100 µM. The IC50 (Beta-lactamase) was 0.53 µM, the IC50 [1] was 0.023 µM and the IC50 [2] was 0.0012 µM. For the same compound, the IC50 [3] was 0.036 µM.
For O=C(O)c1ccc(NC(=O)[C@@H]2CC[C@@H]3CN2C(=O)N3OS(=O)(=O)O)cc1, the INH (Acinetobacter baumannii) was > 100 µM, the INH (Pseudomonas aeruginosa) was 50 µM and the INH (Klebsiella pneumoniae) was > 100 µM. The IC50 (Beta-lactamase) was 4.8 µM, the IC50 [1] was 0.46 µM and the IC50 [2] was 0.011 µM. For the same compound, the IC50 [3] was 0.01 µM.
In the case of O=C(Nc1ccncc1)[C@@H]1CC[C@@H]2CN1C(=O)N2OS(=O)(=O)O, the INH (Acinetobacter baumannii) is reported as > 100 µM, the INH (Pseudomonas aeruginosa) is reported as 25 µM and the INH (Klebsiella pneumoniae) is reported as 50 µM. It also gave an IC50 (Beta-lactamase) of 20 µM, an IC50 [1] of 1.05 µM and an IC50 [2] of 0.006 µM.
In the case of O=C(N[C@@H]1CCCNCC1)[C@@H]1CC[C@@H]2CN1C(=O)N2OS(=O)(=O)O, the INH (Acinetobacter baumannii) is reported as > 100 µM, the INH (Pseudomonas aeruginosa) is reported as 6.25 µM and the INH (Klebsiella pneumoniae) is reported as 12.5 µM. The IC50 (Beta-lactamase) was > 50 µM, the IC50 [1] was 1.2 µM and the IC50 [2] was 0.52 µM. For the same compound, the IC50 [3] was 0.225 µM.
With O=C(N[C@@H]1CCNC1)[C@@H]1CC[C@@H]2CN1C(=O)N2OS(=O)(=O)O the INH (Acinetobacter baumannii) was > 100 µM, the INH (Pseudomonas aeruginosa) was 6.25 µM and the INH (Klebsiella pneumoniae) was 6.25 µM. For the same compound, the IC50 (Beta-lactamase) was > 50 µM, the IC50 [1] was 27 µM and the IC50 [2] was 1.9 µM. It also gave an IC50 [3] of 0.26 µM.
